According to patent US20250312271A1, “GSK-3-BETA INHIBITOR-LOADED POLYMERIC SCAFFOLDS FOR THE TREATMENT OF MUSCLE INJURIES” (Rutgers, The State University of New Jersey, priority 2024, published 2025):
“Also recorded” adds a separate entry of the source.

Columns and labels:
[1] = system: hMSCs; test: PrestoBlue assay of hMSCs; assay type: cell-based, human; conditions: day 7, 14, 18, 0.5, 1.0, 1.5 μM
Method: (§1) Rosiglitazone (AVANDIA®) was added to the adipogenic medium at a final concentration of 1 μM before use. A PrestoBlue™ assay and a LIVE/DEAD viability/cytotoxicity kit were utilized to assess cell viability. Live and dead cell counts were obtained using a Celigo Image Cytometer. Cells were fixed in 4% PFA (paraformaldehyde) and stained with Oil Red O to measure lipid formation as a sign of adipocyte differentiation. Lipid formation was quantified by assessing the absorbance of Oil Red O at 515 nm.

[2] = system: 3T3-L1 preadipocytes; conditions: cited from earlier work
[3] = system: PPARγ; conditions: 3T3-L1 preadipocytes; cited from earlier work
[4] = system: ADSCs; test: Live/Dead quantification of ADSCs; assay type: cell-based
Method: as §1

[5] = system: hMSCs; test: Live/Dead quantification of hMSCs; assay type: cell-based, human; conditions: day 7, 14, 18, 0.5, 1.0, 1.5 μM
Method: as §1

[6] = system: human skeletal muscle cells (hSkMCs); test: Morphological assessment of lipid droplets in hSkMCs cultured with scaffolds; assay type: cell-based; conditions: drug in both GelMA and PLGA layers
Method: Human skeletal muscle cells ([…]) (5,000 cells/cm^2) were cultured in ADM and myogenic differentiation media (myodiff) with scaffolds at 200 rpm, with and without the drug in GelMA and PLGA layers to evaluate the relationship between drug concentrations and lipid formation resulting from the drug's release from the scaffold. PrestoBlueTM assay assessed cell viability.

[7] = system: bone marrow-derived human mesenchymal stem cells (hMSCs); test: Oil Red O quantification of lipid formation in adipogenic hMSC cultures; assay type: cell-based
Method: as §1

[8] = system: adipose-derived stem cells (ADSCs); test: Oil Red O quantification of lipid formation in adipogenic ADSC cultures; assay type: cell-based
Method: as §1

[9] = system: ADSCs; test: PrestoBlue assay of ADSCs; assay type: cell-based; conditions: day 7, 14, 21, 0.5, 1.0, 1.5 μM
Method: as §1

[10] = CHIR99021 release from polymeric scaffolds (HPLC); assay type: physicochemical
Method: In this study, GSK3β inhibitor-loaded scaffolds were fabricated via electrospinning and hydrogel formation. Pluronic F127 (0.08 g) was dissolved in 1.0 ml hexafluoroisopropanol (HFP) before adding the GSK3β inhibitor. Separately, poly(lactic-co-glycolic acid) PLGA (50:50) (16%, w/v) was dissolved in HFP. The polymer solutions (PLGA/CHIR-F127 or PLGA/CHIR) were electrospun at a flow rate of 1.0 ml/h with a 14 cm distance from the 18G needle tip to the cylindrical drum, and voltages +11/−2 kV were applied. Samples (13.5 mm diameter) punched out from scaffolds were immersed in GelMA (gelatin methacrylate) (5%, w/v)/CHIR solution for 20 seconds, then crosslinked using Lithium Phenyl (2,4,6-Trimethylbenzoyl) Phosphinate (LAP, 0.5% w/v) for 2 minutes on each side under 405 nm UV. Scaffolds comprise a rapidly degrading layer of GelMA for inhibitor delivery to the injury site, and a slow-degrading layer of PLGA to provide prolonged support for tissue regeneration.
Samples were submerged in water on a plate shaker at 400 rpm, with 200 μL replaced by fresh water at each time point.

Cc1cnc(-c2cnc(NCCNc3ccc(C#N)cn3)nc2-c2ccc(Cl)cc2Cl)[nH]1 [CHIR99021]
cellular metabolic activity (PrestoBlue) [1]: does not negatively alter | differentiation of 3T3-L1 preadipocytes (Oil Red O staining) [2]: blocked the differentiation | PPARγ expression [3]: induced | viability (Live/Dead) ([4]; day 7, 14, 21, 0.5, 1.0, 1.5 μM): does not negatively alter | percent of dead cells, ADSCs in GM versus in 1.5 μM CHIR ([4]; day 21, 1.5 μM CHIR): No significant difference | viability (Live/Dead) [5]: does not negatively alter | lipid droplet suppression, CHIR99021 in both GelMA and PLGA layers [6]: enhances this effect | difference in lipid formation in groups treated with CHIR99021 ([7]; hMSCs at 18 day, One-Way ANOVA, P=0.0000018): significant difference | lipid droplet formation (Oil Red O) ([7]; hMSCs in ADM, CHIR99021 0.5, 1.0, 1.5 μM): decreases | difference in lipid formation in groups treated with CHIR99021 ([8]; ADSCs at 21 days, One-Way ANOVA, P=0.00003): significant difference | lipid droplet formation (Oil Red O) ([8]; ADSCs in ADM, CHIR99021 0.5, 1.0, 1.5 μM): decreases; also recorded: inhibited lipid formation | cellular metabolic activity (PrestoBlue) [9]: does not negatively alter | release kinetics profile ([10]; from polymeric scaffolds (PLGA nanofibers), in water): first-order | release ([10]; within 72 hours, from polymeric scaffolds): ~70%
